Where two headings read alike, the source gives them in different places.
How the values were obtained:
[1] = system: sleep/wake stages; test: Polysomnography in telemetered Sprague-Dawley rats; assay type: in vivo, rat
Protocol: MK-1064 promoted both REM and NREM sleep in telemetered rats in a time-of-day-dependent manner.
Figure 2 MK-1064 dose-dependently promotes both NREM and REM sleep during the active phase in rats. Mean time in active wake, light sleep (LS), SWS, and REM sleep in adult Sprague-Dawley rats monitored for 2 hours post-dose. MK-1064 (5, 10, or 20 mg/kg) or vehicle (20% vitamin E TPGS, orally) was administered in a balanced crossover design such that each animal received drug and vehicle treatments (7 consecutive days). […] Mean within-subject change relative to vehicle ± SEM is shown (*, ***p < 0.05 < 0.001, respectively; one sample t-test for repeated measures compared with vehicle).
The mean time spent in sleep stages was determined in radio-telemetry–implanted mice, rats, and dogs, as described previously. Continuous PSG recordings were performed following oral MK-1064 or vehicle (20% vitamin E d-alpha tocopheryl polyethylene glycol 1000 succinate [TPGS]) administration. In rodents, electrocorticogram (ECoG) and electromyogram (EMG) and locomotor activity measured via radio-telemetry were scored in 10 second epochs to define light sleep (LS; no movement, moderate EMG tone, theta with <50% delta ECoG [0.5–4 Hz]), slow wave sleep (SWS; no gross movement, reduced EMG, >50% delta ECoG) and rapid eye movement sleep (REM; no movement, little to no EMG activity, primarily theta ECoG [4–7 Hz] activity)[42]. Scored data were then grouped and compiled according to condition (vehicle or compound treatment) averaged over the indicated times (30 minutes or 2 hours) and analyzed statistically as previously described[1][14][40][42] (see below). Canine sleep was scored similarly except that electrooculogram (EOG) recordings were used to define and distinguish REM sleep (high frequency EOG, no locomotor, little to no EMG activity, theta ECoG) from non-REM I (NREM I; little to no EOG activity, no movement, moderate EMG tone, <50% delta ECoG) and NREM II sleep (little to no EOG activity, no gross movement, reduced EMG, >50% delta ECoG), and analyzed as described previously.
In adult male Sprague-Dawley rats (600 g, Taconic Farms, Germantown, NY), MK-1064 (5, 10, or 20 mg/kg) or vehicle was administered orally in a balanced crossover design such that each subject received drug and vehicle treatments (7 consecutive days). […] Data were analyzed using within-subject ANOVA to determine main effects and one sample t-test to compare with vehicle.

[2] = Plasma exposure in dogs after oral dosing; assay type: in vivo, dog; conditions: for Cmax / Tmax / AUC(0-t): beagle, dog, plasma
[3] = system: somnolence / alertness; test: Karolinska Sleepiness Scale and Bond and Lader VAS in healthy subjects; assay type: in vivo, human; conditions: all single doses greater than 5 mg
Protocol: In the ascending single-dose study, doses of MK-1064 ranging from 5 to 250 mg corresponded with dose-dependent changes in measured plasma levels (Fig. 6a). […] The greatest effects were observed between 1 and 4 hours, and effects greatly diminished 8 hours following treatment, consistent with the time course of plasma concentrations of MK-1064.
Figure 6 MK-1064 dose-dependently promotes somnolence and attenuates arousal in healthy human subjects. (a) Plasma concentration of MK-1064 over time following administration of single doses of MK-1064 5–250 mg. (b) Somnolence, as measured by the KSS, and (c) alertness, as measured by the Bond and Lader VAS, over time following administration of single doses of MK-1064 (5–250 mg) or placebo in healthy human subjects (N = 20).
During each treatment period, blood was collected for PK analysis pre-dose and at time points up to 72 hours post-dose. MK-1064 plasma concentrations were determined by reverse phase high-performance liquid chromatography and detected with tandem mass spectrometry. The lower limit of quantitation was 1 ng/mL and the linear calibration range was 1–1000 ng/mL. PK parameters were calculated with WinNonLin 5.2.1. Values below the assay limit of quantification were indicated with a zero value. […]

[4] = design: method as in PMID 24376006; conditions: dogs ref 29; cited from earlier work
[5] = target: T1, OX2R (Homo sapiens, UniProt O43614); test: hOX2R binding kinetics (3H-labelled ligand, ON and OFF rate); design: expressed in transfected cells; host or cells: CHO-K1; conditions: for hOX2R binding kinetics KON: KON = (KOBS − KOFF)/[ligand]; for Kd / hOX2R binding kinetics KOFF / hOX2R binding kinetics T1/2OFF / hOX2R binding kinetics T1/2ON: room temperature, pH 7.4
T1 sequence (O43614 1-444): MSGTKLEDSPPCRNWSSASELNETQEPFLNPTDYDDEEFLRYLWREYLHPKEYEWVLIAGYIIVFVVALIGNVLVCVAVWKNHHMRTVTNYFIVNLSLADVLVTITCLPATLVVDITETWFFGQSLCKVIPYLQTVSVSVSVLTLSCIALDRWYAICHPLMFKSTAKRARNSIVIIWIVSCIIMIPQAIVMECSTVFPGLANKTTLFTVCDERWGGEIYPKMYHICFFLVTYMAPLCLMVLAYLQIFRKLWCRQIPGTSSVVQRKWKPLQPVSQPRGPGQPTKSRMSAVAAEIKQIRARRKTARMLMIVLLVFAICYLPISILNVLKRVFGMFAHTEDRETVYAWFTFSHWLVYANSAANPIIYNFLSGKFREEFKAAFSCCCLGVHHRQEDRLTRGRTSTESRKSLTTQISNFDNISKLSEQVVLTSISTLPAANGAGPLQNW
Protocol: Binding and functional blockade of OX1R and OX2R with MK-1064 relative to other 2-SORAs and the DORA, MK-6096, were assessed using membranes from Chinese hamster ovary (CHO)-K1 cells (American Type Tissue Collection, Manassas, VA) transfected to express human, mouse, rat, rabbit, dog, or rhesus monkey OX1R or OX2R receptors, as described previously. The kinetics of binding to human OX2R was assessed by radioligand displacement on CHO-K1 cells expressing the receptor. […] The ON rate analysis was performed by presoaking GF/B filters in 0.3% polyethyleneimine (Sigma) using a Skatron 12-well cell harvester and cold buffer at the indicated time points after addition. For OFF rate determination, binding reactions were allowed to proceed to equilibrium and terminated with 1000x [Kd] of unlabeled antagonist and filtered as above at pre-determined time points. Ultima Gold^TM (PerkinElmer 6013327) scintillation cocktail was added to each filter disc and counted on a PerkinElmer TriCarb 2910 scintillation counter. Data were analyzed using GraphPad® Prism v 6.04 (San Diego, CA, USA). The KON rate was determined according to the equation, KON = (KOBS − KOFF)/[ligand].

With `COc1ccc(CNC(=O)c2cc(-c3cncc(Cl)c3)cnc2-c2ccccn2)nc1OC` [MK-1064, 5″-chloro-N-[(5,6-dimethoxypyridin-2-yl)methyl]-2,2′:5′, 3″-terpyridine-3′-carbo xamide] the “sleep stage changes, late active phase administration” value ([1]; ZT 23:00, 1 hour prior to inactive period, 20 mg/kg oral) was “only SWS reached significance”, the “active wake during the 2 hours following administration” value ([1]; mid-active phase (ZT 17:00), 5, 10 and 20 mg/kg oral, 20 mg/kg significant p < 0.05) was “dose dependently attenuated active wake” and the “SWS during the 2 hours following administration” value ([1]; mid-active phase, 20 mg/kg oral) was “increases in SWS”. For the same compound, the “REM sleep during the 2 hours following administration” value ([1]; mid-active phase, 10 and 20 mg/kg oral) was “increases in REM sleep”, the “expected unbound drug levels at 1 hour (~Tmax)” value ([2]; 20 mg/kg oral) was “approximately 4.4 μM” and the Cmax ([2]; 1 mg/kg oral) was 1 µM. It also gave a Tmax ([2]; 1 mg/kg oral) of 18 min, an AUC(0-t) ([2]; 1 mg/kg oral, read-out: AUC0–24) of 3.4 µM·h and a Cmax ([2]; 20 mg/kg oral) of 15.3 µM. For the same compound, the Tmax ([2]; 20 mg/kg oral) was 48 min, the AUC(0-t) ([2]; 20 mg/kg oral, read-out: AUC0-24) was 56.5 µM·h and the “subject-reported somnolence (KSS) and drowsiness (alertness VAS)” value [3] was “Dose-dependent increases”. For the same compound, the “minimum plasma concentration needed for sleep-promoting efficacy” value [4] was 0.028 µM, the “hOX2R binding kinetics KON” value [5] was 1.19e+07 min⁻¹ and the Kd [5] was 0.51 nM. For the same compound, the “hOX2R binding kinetics KOFF” value [5] was 0.00697 mol⁻¹ min⁻¹, the “hOX2R binding kinetics T1/2OFF” value [5] was 110 min and the “hOX2R binding kinetics T1/2ON” value [5] was 21.1 min.
With `COc1ccc(CNC(=O)c2cc(-c3cncc(C)c3)ncc2-c2nccs2)nc1OC` [MK-3697] the Kd [5] was 1.16 nM, the “hOX2R binding kinetics T1/2OFF” value [5] was 54.4 min and the “hOX2R binding kinetics T1/2ON” value [5] was 24.3 min.
With `Cc1ccc(-c2ncccn2)c(C(=O)N2C[C@H](COc3ccc(F)cn3)CC[C@H]2C)c1` [MK-6096] the “hOX2R binding kinetics KON” value [5] was 9.19e+06 min⁻¹, the Kd [5] was 0.34 nM and the “hOX2R binding kinetics KOFF” value [5] was 0.0188 mol⁻¹ min⁻¹. For the same compound, the “hOX2R binding kinetics T1/2OFF” value [5] was 118.3 min and the “hOX2R binding kinetics T1/2ON” value [5] was 62.9 min.
